Results taken from patent publication US5461057A, “Hydro-ethano-indeno-pyridines” (priority 1994, dated 1995).
Structures can show the parent of a compound that is named as a salt.

What was measured:
[1] = tested on: histamine-induced dyspnea; experiment: Bronchodilator (in vivo) Guinea Pig Dyspnea; conditions: oral, one hour before histamine challenge
Procedure: Unanesthetized guinea pigs (250-350 g), fasted overnight were placed in individual closed aerosol chambers which were connected to a Monoghan Ultrasonic nebulizer. The nebulizer can deliver an ultrasonic fog of uniform particles in a range of 1-8 microns. A 0.1% solution of histamine is aerosolized into the chambers causing the guinea pigs to develop dyspnea. The test drug was given orally one hour before the histamine challenge and the onset of dyspnea was recorded. Saline control animals developed dyspnea within 90-120 seconds of aerosol exposure. […] The data was expressed as the number tested over the number survived. The model was sensitive to bronchodilator and H1 antihistamine activity. Further information relating this test can be obtained from the following two publications which are hereby incorporated by reference: Dungan, K. W. and Lish, P. M. J Allergy 32:139-151 (1961). and Lish, P. M., Robbins, S. I. and Petres E. L. J. Pharmacol. Exp. Therap. 153 L 1538 (1966 ).

[2] = tested on: LOX human melanoma cell adhesion to human fibronectin; experiment: LOX melanoma cell adhesion to fibronectin; type: cell-based; conditions: Homo sapiens, LOX; for inhibition at 10 µM: read-out: % Inhibition at 10 μM; for inhibition at 50 µM: read-out: % Inhibition at 50 μM; for IC50: Table 4, 1 hour adhesion, read-out: LOX FN IC50
Procedure: (§1) Adhesion assays were run essentially as described previously (Pai et al., J. Biomed. Res. 2: 53, 1992). 96-well plates were coated with human fibronectin (140 ng/well), human vitronectin (75 ng/well), human collagen I (100 ng/well), human collagen IV (100 ng/well), human fibrinogen (1 μg/well), murine laminin (600 ng/well), or polylysine, and incubated overnight in a humidified 37° C. incubator. Excess fibronectin or other substrate was then removed and 0.2 ml of 2 mg/ml bovine serum albumin (BSA)in Dulbecco's phosphate-buffered saline (DPBS) was added to each well, incubated for 2 hours at 37° C., and removed. LOX human melanoma cells, M27 murine lung carcinoma cells or B16F10 mouse melanoma cells were detached from tissue culture flasks with RPMI medium containing 0.2M urea and 10 mM EDTA, and 0.18 ml of cells were added to each well to a final cell concentration of 1×10^5 cells/well. For inhibition studies 20 μl of 10× compound was added to the wells prior to cell addition. Cells were allowed to adhere for 1 hour at 37° C. The wells were then gently washed twice with 0.2 ml DPBS. The fluorescent dye calcein AM (Molecular Probes, Eugene Oreg.) in DPBS (0.1 ml of 1 μM) was added to each well, and the plates were incubated for 1 hour at room temperature. Adherent cells were quantitated by reading the fluorescence on a Cytofluor 2300 fluorescent plate reader (Millipore) at 485 nm excitation and 530 nm emission.
LOX FN-IC50 value for inhibition of adhesion of LOX human melanoma cells to fibronectin coated on a plastic surface.

[3] = Calcein cytotoxicity assay; type: cell-based; conditions: human, lox melanoma cells; 2 hours, calcein AM assay; read-out: 2 Hr Tox LD50
Procedure: LOX human melanoma cells were detached from tissue culture flasks with RPMI medium containing 0.2M urea and 10 mM EDTA, and 0.18 ml of cells were added to each well to a final cell concentration of 5×10^4 cells/well. 20 μl of 10× compound was added to the wells prior to cell addition. Cells were incubated with the compound at 37° C. for 1 hour or 5 hour as indicated. Calcein AM in DPBS (0.02 ml of 5 μM) was added to each well, and the plates were incubated for an additional 1 hour at room temperature. Viable cells were quantitated by reading the fluorescence on a Cytofluor 2300 fluorescent plate reader at 485 nm excitation and 530 nm emission.

[4] = tested on: LOX human melanoma cell adhesion to polylysine; experiment: LOX melanoma cell adhesion to polylysine; type: cell-based; conditions: read-out: Poly Lys IC50
Procedure: as §1

pulmonary resistance = experiment: Pulmonary Resistance in the Anesthetized Rat; type: in vivo; conditions: 0.5 mpk, i.v., mean of 5 animals, % decrease in pre-drug baseline resistance; for inhibition in vivo at 0.5 mg/kg: Rattus norvegicus, iv, read-out: Pulmonary Resistance in Rats, % Inhibition
Procedure: Rats (400-500 g) anesthetized with dialurethane were surgically prepared with tracheal and esophageal catheters. These catheters were connected to pressure transducers for recording of air flow, tracheal and esophageal pressures. These pressures formed the basis for measurement of pulmonary resistance. Inhibition of pulmonary resistance is a reflection of bronchodilation.
All compounds were tested i. v. in 5 separate animals. All data are expressed in % decrease in the pre-drug baseline resistance and each number given is the mean of the 5 animals tested.
The model is sensitive to bronchodilator activity.
Further information relating this test can be obtained from the following publications which are hereby incorporated by reference: Comroe et al, J. Appl. Physio. 4:439-44 (1959); Dungan et al J. Pharmacol. Exp. Therap. 164:290-301(1968); and Mead, J. et al. J. Appl. Physio. 5:779-796 (1953).

[5] = Cavia porcellus, 1 h, 100 mg/kg, read-out: DYSP survivors (converted)
[6] = Cavia porcellus, 1 h, 50 mg/kg, read-out: DYSP survivors (converted)

CN1C2CCC1C1C(=C(c3cccc(C(F)(F)F)c3)c3ccccc31)C2 (stereo not drawn) [L, 1 (SR):3(RS)-1,3-Ethano-2-methyl-5-(m-trifluoromethylphenyl)-1,3,4,9b-tetrahydro-H-indeno[1,2-c] pyridine. HCl 0.75H2 O.]
responders at 100 mg/kg [1, 5]: 100%
inhibition at 10 µM [2]: 23.7%
inhibition at 50 µM [2]: 100%
IC50 [2]: 20 µM
CC50 at 2 h [3]: 29.7 µM
IC50 [4]: 80.4 µM
inhibition in vivo at 0.5 mg/kg (pulmonary resistance): 14%

CN1C2CCC1C1c3cc(Cl)ccc3C(O)(c3ccc(F)cc3)C1C2 (stereo not shown) [LL]
inhibition at 10 µM [2]: -12.2%
inhibition at 50 µM [2]: 26.6%

CN1C2CCC1C1C(=C(c3ccccc3)c3ccc(F)cc31)C2 (stereo not shown) [M]
DYSP survivors ([1]; 100 mg/kg): 0/3
inhibition at 10 µM [2]: 18.4%
inhibition at 50 µM [2]: 99.6%
IC50 [2]: 12.5 µM
CC50 at 2 h [3]: 39.8 µM
IC50 [4]: 72.7 µM

CN1C2CCC1C1c3ccccc3C(O)(c3cccc(C(F)(F)F)c3)C1C2 (stereo not shown) [NN]
responders at 50 mg/kg [1, 6]: 0%
inhibition at 10 µM [2]: 9.4%
inhibition at 50 µM [2]: 24.7%

Cc1ccc(C2(O)c3ccccc3C3C4CCC(CC32)N4C)cc1 (stereo not shown) [OO]
responders at 100 mg/kg [1, 5]: 33.3%
inhibition at 10 µM [2]: 6.6%
inhibition at 50 µM [2]: 23.7%
inhibition in vivo at 0.5 mg/kg (pulmonary resistance): -18%

CN1C2CCC1C1C(=C(c3cccc(F)c3)c3ccccc31)C2 (stereo not shown) [O]
DYSP survivors ([1]; 100 mg/kg): 0/3
inhibition at 10 µM [2]: 5.2%
inhibition at 50 µM [2]: 97.1%
IC50 [2]: 11.2 µM
CC50 at 2 h [3]: 72 µM
IC50 [4]: 130 µM

CN1C2CCC1C1C(=C(c3cccc(F)c3)c3ccc(F)cc31)C2 (stereo not shown) [P]
DYSP survivors ([1]; 50 mg/kg): 0/3
inhibition at 10 µM [2]: -2.4%
inhibition at 50 µM [2]: 99.8%
IC50 [2]: 11.7 µM
CC50 at 2 h [3]: 64.3 µM
IC50 [4]: 297 µM
Pulmonary Resistance in Rats, % Inhibition (pulmonary resistance): 12%

CN1C2CCC1C1c3ccccc3C(O)(c3cccc(Cl)c3)C1C2 (stereo not shown) [QQ]
responders at 50 mg/kg [1, 6]: 33.3%
inhibition at 10 µM [2]: 9.2%
inhibition at 50 µM [2]: 21.1%
inhibition in vivo at 0.5 mg/kg (pulmonary resistance): -30%

CN1C2CCC1C1c3ccccc3C(O)(c3cccc(F)c3)C1C2 (stereo not shown) [RR]
responders at 50 mg/kg [1, 6]: 0%
responders at 100 mg/kg [1, 5]: 66.7%
inhibition at 10 µM [2]: 13.8%
inhibition at 50 µM [2]: 17.6%
inhibition in vivo at 0.5 mg/kg (pulmonary resistance): 28%

CN1C2CCC1C1c3ccccc3C(O)(c3ccccc3C(F)(F)F)C1C2 (stereo not shown) [TT]
responders at 50 mg/kg [1, 6]: 0%
inhibition at 10 µM [2]: 16.7%
inhibition at 50 µM [2]: 16.1%
inhibition in vivo at 0.5 mg/kg (pulmonary resistance): 7%

CN1C2CCC1C1c3cc(Cl)ccc3C(O)(c3ccccc3)C1C2 (stereo not shown) [VV]
responders at 100 mg/kg [1, 5]: 100%
inhibition at 10 µM [2]: 0.9%
inhibition at 50 µM [2]: 15.9%

CN1C2CCC1C1c3ccccc3C(O)(c3ccc4c(c3)OCO4)C1C2 (stereo not shown) [WW]
inhibition at 10 µM [2]: 1.2%
inhibition at 50 µM [2]: 11.9%
inhibition in vivo at 0.5 mg/kg (pulmonary resistance): 39%

COc1ccc(C2(O)c3cc(Cl)ccc3C3C4CCC(CC32)N4C)cc1 (stereo not shown) [XX, 7-Chloro-5-(p-methoxyphenyl)-2-methyl-1,3-ethano-1,2,3,4,4a,9b-hexahydro-5H-indeno[1,2-c]pyridin-5-ol]
responders at 10 mg/kg ([1]; Cavia porcellus, 1 h, 10 mg/kg, read-out: DYSP survivors (converted)): 66.7%
responders at 20 mg/kg ([1]; Cavia porcellus, 1 h, 20 mg/kg, read-out: DYSP survivors (converted)): 66.7%
responders at 50 mg/kg [1, 6]: 100%
responders at 100 mg/kg [1, 5]: 100%
inhibition at 10 µM [2]: -23.1%
inhibition at 50 µM [2]: 8.1%

CN1C2CCC1C1c3ccc(Cl)cc3C(O)(c3ccccc3)C1C2 (stereo not shown) [YY]
responders at 50 mg/kg [1, 6]: 100%
responders at 100 mg/kg [1, 5]: 66.7%
inhibition at 10 µM [2]: -14.6%
inhibition at 50 µM [2]: 7.4%

COc1ccc(C2(O)c3ccc(Cl)cc3C3C4CCC(CC32)N4C)cc1 (stereo not shown) [ZZ]
responders at 100 mg/kg [1, 5]: 33.3%
inhibition at 10 µM [2]: -9.7%
inhibition at 50 µM [2]: 7%
